Calls of active or inactive are those of the source. The calls are words filed in the database; no cut-off is given here.

The text below walks through data of ChEMBL document CHEMBL3091331, “Aminothiazole-featured pirinixic acid derivatives as dual 5-lipoxygenase and microsomal prostaglandin E2 synthase-1 inhibitors with improved potency and efficiency in vivo” (J Med Chem, 2013).

Data set [1] can be described thus: (§1) Inhibition of reactive oxygen species generation in PMA-stimulated human polymorphonuclear leukocytes incubated for 15 mins prior to PMA-challenge by fluorescence assay. Type of data set: functional.
For data set [2], the species on record is Homo sapiens. The data set is described as §1. Type of data set: functional.
Data set [3] is described as follows: Cytotoxicity against human polymorphonuclear leukocytes at 10 uM after 1 hr by trypan blue staining.
A short description of data set [4]: Cytotoxicity against human polymorphonuclear leukocytes at 10 uM after 1 hr by light microscopic analysis.
The test system of data set [5] is Mus musculus. Kind of data set: Antiinflammatory activity in CD-1 mouse peritonitis model assessed as reduction in vascular permeability at 10 mg/kg, ip administered 30 mins prior to zymosan-challenge measured after 4 hrs relative to vehicle-treated control. Type of data set: functional. To be noted: CD-1, ip, route intraperitoneal.
For data set [6], the target named is T1, Polyunsaturated fatty acid lipoxygenase ALOX15 (Homo sapiens) (UniProt P16050).
T1 sequence (whole entry): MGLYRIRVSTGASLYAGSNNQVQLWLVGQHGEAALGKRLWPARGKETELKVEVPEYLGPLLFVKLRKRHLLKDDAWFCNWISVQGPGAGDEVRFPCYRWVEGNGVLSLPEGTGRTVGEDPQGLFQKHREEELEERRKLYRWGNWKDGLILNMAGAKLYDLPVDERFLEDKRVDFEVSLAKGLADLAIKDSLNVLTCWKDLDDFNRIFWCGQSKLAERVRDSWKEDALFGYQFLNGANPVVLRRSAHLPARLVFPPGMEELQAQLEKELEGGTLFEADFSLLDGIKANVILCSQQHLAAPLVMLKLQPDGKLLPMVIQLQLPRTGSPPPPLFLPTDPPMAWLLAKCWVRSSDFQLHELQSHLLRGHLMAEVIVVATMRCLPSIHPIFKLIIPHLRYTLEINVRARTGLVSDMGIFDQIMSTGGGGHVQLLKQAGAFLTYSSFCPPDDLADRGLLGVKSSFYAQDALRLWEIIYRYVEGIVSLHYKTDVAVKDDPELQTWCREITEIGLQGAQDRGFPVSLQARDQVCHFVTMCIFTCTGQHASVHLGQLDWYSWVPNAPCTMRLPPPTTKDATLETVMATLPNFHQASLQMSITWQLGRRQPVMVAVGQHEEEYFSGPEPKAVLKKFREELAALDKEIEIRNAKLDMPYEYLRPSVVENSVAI
The data set is described as follows: Inhibition of 15-lipoxygenase in human polymorphonuclear leukocytes using arachidonic acid as substrate assessed as remaining activity at 10 uM incubated 15 mins prior to substrate addition measured after 10 mins by HPLC analysis relative to control. Type of data set: cell-based.

The nature of data set [7]: Metabolic stability in Sprague-Dawley rat liver microsomes assessed as compound remaining at 10 uM after 60 mins by HPLC analysis. Type of data set: ADME. Particulars: read-out: Stability.
Data set [8] concerns Mus musculus. The data set is described as follows: Reduction of 6-keto […] formation in CD-1 mouse peritonitis model at 10 mg/kg, ip administered 30 mins prior to zymosan-challenge measured after 4 hrs by EIA (reference value: 3.89 +/- 0.58 ng/ml). Type of data set: functional, organism-based. Set-up: dose 10 mg/kg.
Data set [9] has as its target T2, Polyunsaturated fatty acid lipoxygenase ALOX12 (Homo sapiens) (UniProt P18054).
T2 sequence (whole entry): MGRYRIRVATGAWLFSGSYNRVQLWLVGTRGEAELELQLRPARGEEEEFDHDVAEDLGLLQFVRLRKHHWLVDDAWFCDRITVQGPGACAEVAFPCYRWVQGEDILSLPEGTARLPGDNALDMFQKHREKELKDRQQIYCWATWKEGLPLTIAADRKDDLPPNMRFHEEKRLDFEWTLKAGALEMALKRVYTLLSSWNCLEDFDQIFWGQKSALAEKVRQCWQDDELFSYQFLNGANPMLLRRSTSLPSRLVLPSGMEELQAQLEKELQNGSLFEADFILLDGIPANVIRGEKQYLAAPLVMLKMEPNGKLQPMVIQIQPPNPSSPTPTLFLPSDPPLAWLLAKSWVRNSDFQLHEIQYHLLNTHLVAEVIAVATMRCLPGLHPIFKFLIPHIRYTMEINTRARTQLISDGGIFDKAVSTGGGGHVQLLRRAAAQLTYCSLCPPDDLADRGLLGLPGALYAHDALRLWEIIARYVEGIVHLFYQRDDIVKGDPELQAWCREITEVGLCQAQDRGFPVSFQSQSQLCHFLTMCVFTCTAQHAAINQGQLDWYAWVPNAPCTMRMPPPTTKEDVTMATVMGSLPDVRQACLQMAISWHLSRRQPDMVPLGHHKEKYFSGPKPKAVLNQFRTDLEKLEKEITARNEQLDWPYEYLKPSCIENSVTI
The data set is described as follows: Inhibition of 12-lipoxygenase in human polymorphonuclear leukocytes using arachidonic acid as substrate assessed as remaining activity at 10 uM incubated 15 mins prior to substrate addition measured after 10 mins by HPLC analysis relative to control. Type of data set: cell-based.

The species entered for data set [10] is Homo sapiens. Kind of data set: Translocation of 5-lipoxygenase from cytosol into nuclear membrane in A23187-stimulated human polymorphonuclear leukocytes assessed as enzyme product formation at 10 uM incubated for 15 mins prior to A23187-challenge measured after 5 mins by Western blotting analysis. Type of data set: functional.
The target in data set [11] is T3, Prostaglandin G/H synthase 2 (Homo sapiens) (UniProt P35354).
T3 sequence (whole entry): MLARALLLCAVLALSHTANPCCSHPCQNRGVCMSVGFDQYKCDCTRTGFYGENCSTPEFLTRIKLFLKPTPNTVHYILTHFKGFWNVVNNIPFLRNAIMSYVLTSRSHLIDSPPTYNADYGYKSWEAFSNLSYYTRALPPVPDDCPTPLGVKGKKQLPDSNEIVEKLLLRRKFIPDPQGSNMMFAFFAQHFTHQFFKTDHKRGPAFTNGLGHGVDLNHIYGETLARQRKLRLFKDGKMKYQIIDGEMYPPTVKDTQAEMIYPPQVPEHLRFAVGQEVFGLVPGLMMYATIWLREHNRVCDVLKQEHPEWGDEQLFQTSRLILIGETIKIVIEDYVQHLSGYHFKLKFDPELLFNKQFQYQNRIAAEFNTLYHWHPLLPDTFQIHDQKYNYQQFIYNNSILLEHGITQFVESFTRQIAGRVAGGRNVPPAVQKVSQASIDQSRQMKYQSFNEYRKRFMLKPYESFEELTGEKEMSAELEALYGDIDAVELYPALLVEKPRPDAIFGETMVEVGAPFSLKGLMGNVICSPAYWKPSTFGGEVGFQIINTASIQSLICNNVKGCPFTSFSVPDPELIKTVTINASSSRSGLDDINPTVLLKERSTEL
To be noted: at 10 µM.
Description: Inhibition of human recombinant COX2 using arachidonic acid as substrate at 10 uM incubated 5 mins prior to substrate addition measured after 5 mins by HPLC analysis

`CCCCCCC(Sc1nc(Cl)cc(Nc2nc(-c3ccc4ccccc4c3)cs2)n1)C(=O)O` (racemic): the IC50 in data set [1] came to 8 µM. The results for the inhibition result (in the data set listed under Homo sapiens [2]; in data set [11]) were “Dose-dependent effect” and 18%, respectively. Further, the Activity result is “Non-toxic” in data set [3], “Non-toxic” in [4], 84% in data set [6] and 168% in data set [9]. For the same molecule, in the data set with Mus musculus [5], the inhibition in vivo at 10 mg/kg amounted to 57%. In addition, in data set [7], the remaining at 1 h, 10 µM amounted to 77%. Besides, in the data set on Mus musculus [8], the inhibition entry was “inactive”. Further, the result in the data set filed under Homo sapiens [10] was inactive.
